Reference: patent US10577353B2, “5-(n-[6,5]-fused bicyclic aryl tetrahydroisoquinolin-6-yl) pyridin-3-yl acetic acid derivatives as inhibitors of human immunodeficiency virus replication” (priority 2015, dated 2020)
pEC50: −log10 of the molar value.

System: recombinant NL-RLuc virus (NL4-3 derived HIV)
Assay: Inhibition of HIV replication (NL-RLuc virus in MT-2 cells, luciferase readout)
Assay type: cell-based
Settings: Human immunodeficiency virus 1, NL43, MT2, 120 h
Source text: Inhibition of HIV Replication:
A recombinant NL-RLuc proviral clone was constructed in which a section of the nef gene from NL4-3 was replaced with the Renilla Luciferase gene. This virus is fully infectious and can undergo multiple cycles of replication in cell culture. In addition, the luciferous reporter provides a simple and easy method for quantitating the extent of virus growth and consequently, the antiviral activity of test compounds. The plasmid pNLRLuc contains the proviral NL-Rluc DNA cloned into pUC 18 at the PvuII site. The NL-RLuc virus was prepared by transfection of 293T cells with the plasmid pNLRLuc. Transfections were performed using the LipofectAMINE PLUS kit from Invitrogen (Carlsbad, Calif.) according to the manufacturer and the virus generated was titered in MT-2 cells. For susceptibility analyses, the titrated virus was used to infect MT-2 cells in the presence of compound, and after 5 days of incubation, cells were processed and quantitated for virus growth by the amount of expressed luciferase. Assay media was RPMI 1640 supplemented with 10% heat inactivated fetal bovine serum (FBS), 100 units/ml penicillin G/100 units/ml streptomycin, 10 mM HEPES buffer pH 7.55 and 2 mM L-glutamine. The results from at least 2 experiments were used to calculate the EC50 values. Luciferase was quantitated using the Dual Luciferase kit from Promega (Madison, Wis.). Susceptibility of viruses to compounds was determined by incubation in the presence of serial dilutions of the compound. The 50% effective concentration (EC50) was calculated by using the exponential form of the median effect equation where (Fa)=1/[1+(ED50/drug conc.)^m] (Johnson V A, Byington R T. Infectivity Assay. In Techniques in HIV Research. ed. Aldovini A, Walker B D. 71-76. New York: Stockton Press. 1990).

SMILES	pEC50
Cc1nc(C)c([C@H](OC(C)(C)C)C(=O)O)c(N2CCC(C)(C)CC2)c1-c1ccc2c(c1)CCN(c1nc3ncc(C(F)(F)F)cc3s1)C2 [Compound 1, (S)-2-(tert-butoxy)-2-(4-(4,4-dimethylpiperidin-1-yl)-2,6-dimethyl-5-(2-(6-(trifluoromethyl)thiazolo[4,5-b]pyridin-2-yl)-1,2,3,4-tetrahydroisoquinolin-6-yl)pyridin-3-yl)acetic acid]	8.52
Cc1ccc2sc(N3CCc4cc(-c5c(C)nc(C)c([C@H](OC(C)(C)C)C(=O)O)c5N5CCC(C)(C)CC5)ccc4C3)nc2c1 [Compound 6, (S)-2-(tert-butoxy)-2-(4-(4,4-dimethylpiperidin-1-yl)-2,6-dimethyl-5-(2-(5-methylbenzo[d]thiazol-2-yl)-1,2,3,4-tetrahydroisoquinolin-6-yl)pyridin-3-yl)acetic acid]	7.66
CNc1nc(N2CCc3cc(-c4c(C)nc(C)c([C@H](OC(C)(C)C)C(=O)O)c4N4CCC(C)(C)CC4)ccc3C2)nc2nc[nH]c12 [Compound 23, (S)-2-(tert-butoxy)-2-(4-(4,4-dimethylpiperidin-1-yl)-2,6-dimethyl-5-(2-(6-(methylamino)-7H-purin-2-yl)-1,2,3,4-tetrahydroisoquinolin-6-yl)pyridin-3-yl)acetic acid]	7.21
Cc1nc(C)c([C@H](OC(C)(C)C)C(=O)O)c(N2CCC(C)(C)CC2)c1-c1ccc2c(c1)CCN(c1nc3ccc(Cl)cc3s1)C2 [Compound 4, (S)-2-(tert-butoxy)-2-(5-(2-(6-chlorobenzo[d]thiazol-2-yl)-1,2,3,4-tetrahydroisoquinolin-6-yl)-4-(4,4-dimethylpiperidin-1-yl)-2,6-dimethylpyridin-3-yl)acetic acid]	7.72
Cc1nc(N2CCc3cc(-c4c(C)nc(C)c([C@H](OC(C)(C)C)C(=O)O)c4N4CCC(C)(C)CC4)ccc3C2)c2cnn(C)c2n1 [Compound 19, (S)-2-(tert-butoxy)-2-(5-(2-(1,6-dimethyl-1H-pyrazolo[3,4-d]pyrimidin-4-yl)-1,2,3,4-tetrahydroisoquinolin-6-yl)-4-(4,4-dimethylpiperidin-1-yl)-2,6-dimethylpyridin-3-yl)acetic acid]	9.00
Cc1nc(C)c([C@H](OC(C)(C)C)C(=O)O)c(N2CCC(C)(C)CC2)c1-c1ccc2c(c1)CCN(c1noc3ccccc13)C2 [Compound 18, (S)-2-(5-(2-(benzo[d]isoxazol-3-yl)-1,2,3,4-tetrahydroisoquinolin-6-yl)-4-(4,4-dimethylpiperidin-1-yl)-2,6-dimethylpyridin-3-yl)-2-(tert-butoxy)acetic acid]	8.30
Cc1nc(C)c([C@H](OC(C)(C)C)C(=O)O)c(N2CCC(C)(C)CC2)c1-c1ccc2c(c1)CCN(c1nc3ncccc3s1)C2 [Compound 10, (S)-2-(tert-butoxy)-2-(4-(4,4-dimethylpiperidin-1-yl)-2,6-dimethyl-5-(2-(thiazolo[4,5-b]pyridin-2-yl)-1,2,3,4-tetrahydroisoquinolin-6-yl)pyridin-3-yl)acetic acid]	8.70
Cc1nc(C)c([C@H](OC(C)(C)C)C(=O)O)c(N2CCC(C)(C)CC2)c1-c1ccc2c(c1)CCN(c1nc3c(Cl)cccc3s1)C2 [Compound 7, (S)-2-(tert-butoxy)-2-(5-(2-(4-chlorobenzo[d]thiazol-2-yl)-1,2,3,4-tetrahydroisoquinolin-6-yl)-4-(4,4-dimethylpiperidin-1-yl)-2,6-dimethylpyridin-3-yl)acetic acid]	8.70
Cc1nc(C)c([C@H](OC(C)(C)C)C(=O)O)c(N2CCC(C)(C)CC2)c1-c1ccc2c(c1)CCN(c1ncnc3sccc13)C2 [Compound 14, (S)-2-(tert-butoxy)-2-(4-(4,4-dimethylpiperidin-1-yl)-2,6-dimethyl-5-(2-(thieno[2,3-d]pyrimidin-4-yl)-1,2,3,4-tetrahydroisoquinolin-6-yl)pyridin-3-yl)acetic acid]	8.70
Cc1nc(C)c([C@H](OC(C)(C)C)C(=O)O)c(N2CCC(C)(C)CC2)c1-c1ccc2c(c1)CCN(c1nc3ccccc3n1C)C2 [Compound 17, (S)-2-(tert-butoxy)-2-(4-(4,4-dimethylpiperidin-1-yl)-2,6-dimethyl-5-(2-(1-methyl-1H-benzo[d]imidazol-2-yl)-1,2,3,4-tetrahydroisoquinolin-6-yl)pyridin-3-yl)acetic acid]	7.66
COc1nc(N2CCc3cc(-c4c(C)nc(C)c([C@H](OC(C)(C)C)C(=O)O)c4N4CCC(C)(C)CC4)ccc3C2)c2cc[nH]c2n1 [Compound 27, (S)-2-(tert-butoxy)-2-(4-(4,4-dimethylpiperidin-1-yl)-5-(2-(2-methoxy-7H-pyrrolo[2,3-d]pyrimidin-4-yl)-1,2,3,4-tetrahydroisoquinolin-6-yl)-2,6-dimethylpyridin-3-yl)acetic acid]	8.70
Cc1nc(C)c([C@H](OC(C)(C)C)C(=O)O)c(N2CCC(C)(C)CC2)c1-c1ccc2c(c1)CCN(c1nc3cc(Cl)c(Cl)cc3s1)C2 [Compound 5, (S)-2-(tert-butoxy)-2-(5-(2-(5,6-dichlorobenzo[d]thiazol-2-yl)-1,2,3,4-tetrahydroisoquinolin-6-yl)-4-(4,4-dimethylpiperidin-1-yl)-2,6-dimethylpyridin-3-yl)acetic acid]	7.92
Cc1nc(C)c([C@H](OC(C)(C)C)C(=O)O)c(N2CCC(C)(C)CC2)c1-c1ccc2c(c1)CCN(c1nc(O)c3[nH]cnc3n1)C2 [Compound 21, (S)-2-(tert-butoxy)-2-(4-(4,4-dimethylpiperidin-1-yl)-5-(2-(6-hydroxy-7H-purin-2-yl)-1,2,3,4-tetrahydroisoquinolin-6-yl)-2,6-dimethylpyridin-3-yl)acetic acid]	5.22
Cc1nc(C)c([C@H](OC(C)(C)C)C(=O)O)c(N2CCC(C)(C)CC2)c1-c1ccc2c(c1)CCN(c1ncnc3[nH]ccc13)C2 [Compound 20, (S)-2-(5-(2-(7H-pyrrolo[2,3-d]pyrimidin-4-yl)-1,2,3,4-tetrahydroisoquinolin-6-yl)-4-(4,4-dimethylpiperidin-1-yl)-2,6-dimethylpyridin-3-yl)-2-(tert-butoxy)acetic acid]	8.52
Cc1nc(C)c([C@H](OC(C)(C)C)C(=O)O)c(N2CCC(C)(C)CC2)c1-c1ccc2c(c1)CCN(c1ncnc3cc(C(C)(C)C)sc13)C2 [Compound 28, (S)-2-(tert-butoxy)-2-(5-(2-(6-(tert-butyl)thieno[3,2-d]pyrimidin-4-yl)-1,2,3,4-tetrahydroisoquinolin-6-yl)-4-(4,4-dimethylpiperidin-1-yl)-2,6-dimethylpyridin-3-yl)acetic acid]	7.89
Cc1nc(C)c([C@H](OC(C)(C)C)C(=O)O)c(N2CCC(C)(C)CC2)c1-c1ccc2c(c1)CCN(c1nccc3[nH]cnc13)C2 [Compound 24, (S)-2-(5-(2-(1H-imidazo[4,5-c]pyridin-4-yl)-1,2,3,4-tetrahydroisoquinolin-6-yl)-4-(4,4-dimethylpiperidin-1-yl)-2,6-dimethylpyridin-3-yl)-2-(tert-butoxy)acetic acid]	7.25
Cc1nc(C)c([C@H](OC(C)(C)C)C(=O)O)c(N2CCC(C)(C)CC2)c1-c1ccc2c(c1)CCN(c1nc3cnccc3s1)C2 [Compound 11, (S)-2-(tert-butoxy)-2-(4-(4,4-dimethylpiperidin-1-yl)-2,6-dimethyl-5-(2-(thiazolo[4,5-c]pyridin-2-yl)-1,2,3,4-tetrahydroisoquinolin-6-yl)pyridin-3-yl)acetic acid]	9.00
Cc1nc(C)c([C@H](OC(C)(C)C)C(=O)O)c(N2CCC(C)(C)CC2)c1-c1ccc2c(c1)CCN(c1ncnc3c(C)csc13)C2 [Compound 15, (S)-2-(tert-butoxy)-2-(4-(4,4-dimethylpiperidin-1-yl)-2,6-dimethyl-5-(2-(7-methylthieno[3,2-d]pyrimidin-4-yl)-1,2,3,4-tetrahydroisoquinolin-6-yl)pyridin-3-yl)acetic acid]	8.70
Cc1nc(C)c([C@H](OC(C)(C)C)C(=O)O)c(N2CCC(C)(C)CC2)c1-c1ccc2c(c1)CCN(c1nc3cccnc3s1)C2 [Compound 2, (S)-2-(tert-butoxy)-2-(4-(4,4-dimethylpiperidin-1-yl)-2,6-dimethyl-5-(2-(thiazolo[5,4-b]pyridin-2-yl)-1,2,3,4-tetrahydroisoquinolin-6-yl)pyridin-3-yl)acetic acid]	9.00
Cc1nc(C)c([C@H](OC(C)(C)C)C(=O)O)c(N2CCC(C)(C)CC2)c1-c1ccc2c(c1)CCN(c1ncnc3c1cnn3C)C2 [Compound 16, (S)-2-(tert-butoxy)-2-(4-(4,4-dimethylpiperidin-1-yl)-2,6-dimethyl-5-(2-(1-methyl-1H-pyrazolo[3,4-d]pyrimidin-4-yl)-1,2,3,4-tetrahydroisoquinolin-6-yl)pyridin-3-yl)acetic acid]	8.70
COc1ccc2nc(N3CCc4cc(-c5c(C)nc(C)c([C@H](OC(C)(C)C)C(=O)O)c5N5CCC(C)(C)CC5)ccc4C3)sc2c1 [Compound 12, (S)-2-(tert-butoxy)-2-(4-(4,4-dimethylpiperidin-1-yl)-5-(2-(6-methoxybenzo[d]thiazol-2-yl)-1,2,3,4-tetrahydroisoquinolin-6-yl)-2,6-dimethylpyridin-3-yl)acetic acid]	8.40
